Where two headings read alike, the source gives them in different places.
Experiments:
[1] = biological target: porcine pancreatic elastase (Sus scrofa, UniProt P00772); assay: Inhibition of porcine pancreatic (PP) elastase in vitro, substrate BOC-Ala-ONp, Lineweaver-Burk and Dixon plots; assay type: biochemical; details: for PPE (inhibitory activity towards PP elastase): Table 4
Procedure: As pointed out above, the compounds of the invention are useful as elastase inhibitors. To evaluate the compounds, the inhibitory activity of the compounds were tested in vitro against the serine dependent proteolytic enzymes, trypsin, chymotrypsin and porcine pancreatic elastase. All three enzymes belong to the family of serine proteases where the catalytic residues are composed of a triad of amino acid residues, serine, histidine and aspartic acid that actually perform the peptide bond hydrolysis. In addition to the catalytic residues, the active site is composed of an extended substrate binding site that consists of a primary substrate binding site S1, and various subsites on either side of the scissile bond.
The rate and extent of inhibition could be effected by varying the structure of R and R'. As shown from kinetic parameters when R is p-nitrophenol, and R' was varied, all the peptidyl carbamates inhibited PP elastase except when R' was a tert-butyl group. […] In all cases the inhibition was specific and competitive. […] Moreover, the nature of the protecting group (P5) seemed to affect the affinity of the inhibitor for the enzyme. In all these cases the inhibition was studied at different substrate and inhibitor concentrations and the mode of inhibition determined from Lineweaver-Burk and Dixon plots. Ki values were calculated from the latter. […] The enzymatic activity of PP elastase after treatment with the inhibitor(s) was also tested using the natural substrate elastin-congored.

HL elastase = biological target: T1, HL elastase (Homo sapiens, UniProt P08246); assay: Inhibition of human leukocyte (HL) elastase; assay type: biochemical; details: Table 4; [E] = 0.61 μM
T1 sequence (P08246 30-267): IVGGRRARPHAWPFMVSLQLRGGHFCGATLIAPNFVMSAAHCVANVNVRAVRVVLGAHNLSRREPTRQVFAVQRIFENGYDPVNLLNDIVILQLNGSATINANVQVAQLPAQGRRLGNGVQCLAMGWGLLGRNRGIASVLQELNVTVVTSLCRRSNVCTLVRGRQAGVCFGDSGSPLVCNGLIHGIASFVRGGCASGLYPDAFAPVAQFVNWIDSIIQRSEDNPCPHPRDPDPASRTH

[2] = Table 1, changes in P1', PP elastase, read-out: Ki
[3] = Table 1, changes in P1', [E] = 0.61 μM
[4] = Table 3, variations in P5 and P3
[5] = Table 2, changes in P1, [E] = 0.61 μM

Sequence of porcine pancreatic elastase (P00772 27-266): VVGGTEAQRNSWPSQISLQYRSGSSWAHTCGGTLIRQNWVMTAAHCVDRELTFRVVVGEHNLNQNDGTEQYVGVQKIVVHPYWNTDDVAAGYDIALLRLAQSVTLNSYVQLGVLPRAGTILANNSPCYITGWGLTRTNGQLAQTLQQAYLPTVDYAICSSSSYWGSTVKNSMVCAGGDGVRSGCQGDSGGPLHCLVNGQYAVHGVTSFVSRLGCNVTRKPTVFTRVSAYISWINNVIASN

COC(=O)CCC(=O)N[C@@H](C)C(=O)N[C@@H](C)C(=O)N1CCC[C@H]1C(=O)CN(CC(C)C)C(=O)Oc1ccc([N+](=O)[O-])cc1 [Compound 47, p-Nitrophenyl N-(methylsuccinyl-L-alanyl-L-alanyl-L-prolylmethyl)-N-(2-methyl)propylcarbamate]
PPE (inhibitory activity towards PP elastase) ([1]; [E] = 0.61 μM): - (No inhibition at [I] < 150 μM using [E] = 0.61 μM.)

C[C@H](NC(=O)OC(C)(C)C)C(=O)Oc1ccc([N+](=O)[O-])cc1 [BOC-Ala-ONp, reference compound]
Km ([1]; substrate of PP elastase assay): 4.8 mM

COC(=O)CCC(=O)N[C@@H](C)C(=O)N[C@@H](C)C(=O)N1CCC[C@H]1C(=O)CN(C(=O)Oc1ccccc1)C(C)C [Compound 11, Phenyl N-(Methyl Succinyl-L-Alanyl-L-Alanyl-L-Prolyl Methyl)-N-Isopropyl Carbamate]
Ki [1, 2]: 32.5 µM | Comments (inhibition of PP elastase) [1, 3]: +

COC(=O)CCC(=O)N[C@@H](C)C(=O)N[C@@H](C)C(=O)N1CCC[C@H]1C(=O)CN(C(=O)Oc1ccc([N+](=O)[O-])cc1)C1CCCCC1 [Compound 55, P-Nitrophenyl N-(methyl succinyl-L-alanyl-L-alanyl-L-prolylmethyl)-N-cyclohexylcarbamate]
PPE (inhibitory activity towards PP elastase) ([1]; [E] = 0.61 μM): - (No inhibition at [I] < 150 μM using [E] = 0.61 μM.) | HLE (inhibitory activity towards HL elastase) (HL elastase): - (No inhibition at [I] < 150 μM using [E] = 0.61 μM.)

COC(=O)CCC(=O)N[C@@H](C)C(=O)N[C@@H](C)C(=O)N1CCC[C@H]1C(=O)CN(C(=O)Oc1c(F)c(F)c(F)c(F)c1F)C(C)C [Compound 58, Pentafluorophenyl N-(methyl succinyl-L-analyl-L-alanyl-L-prolymethyl)-N-isopropyl-carbamate]
Ki [1, 2]: 37.5 µM | Comments (inhibition of PP elastase) [1, 3]: + | Comments (inhibition of PP elastase) [1, 4]: +

COC(=O)CCC(=O)N[C@@H](C)C(=O)N[C@@H](C)C(=O)N1CCC[C@H]1C(=O)CN(Cc1ccccc1)C(=O)Oc1ccc([N+](=O)[O-])cc1 [Compound 51, P-Nitrophenyl N-(methyl succinyl-L-alanyl-L-alanyl-L-prolylmethyl)-N-phenylmethylcarbamate]
PPE (inhibitory activity towards PP elastase) ([1]; [E] = 0.61 μM): - (No inhibition at [I] < 150 μM using [E] = 0.61 μM.) | HLE (inhibitory activity towards HL elastase) (HL elastase): - (No inhibition at [I] < 150 μM using [E] = 0.61 μM.)

COC(=O)CCC(=O)N[C@@H](C)C(=O)N[C@@H](C)C(=O)N1CCC[C@H]1C(=O)CN(C(=O)Oc1ccc([N+](=O)[O-])cc1)C(C)(C)C [Compound 72]
Comments (inhibition of PP elastase) [1, 5]: - (NO INHIBITION OF PP ELASTASE AT [I] < 150 μM USING [E] = 0.61 μM)

COC(=O)CCC(=O)N[C@@H](C)C(=O)N[C@@H](C)C(=O)N1CCC[C@H]1C(=O)CN(C(=O)Oc1ccc([N+](=O)[O-])cc1)C1CC1 [Compound 32, P-Nitrophenyl N-(methyl succinyl-L-alanyl-L-analyl-L-prolylmethyl)-N-cyclopropylcarbamate]
Comments (inhibition of PP elastase) [1, 5]: +

CC(C)N(CC(=O)[C@@H]1CCCN1C(=O)[C@H](C)NC(=O)[C@H](C)NC(=O)C(F)(F)F)C(=O)Oc1c(F)c(F)c(F)c(F)c1F [Compound 93, Pentafluorophenyl N-(trifluoroacetyl-L-alanyl-L-alanyl-L-prolylmethyl)-N-isopropylcarbamate]
Ki [1]: 49 µM | Comments (inhibition of PP elastase) [1, 4]: +

COC(=O)CCC(=O)N[C@@H](C)C(=O)N[C@@H](C)C(=O)N1CCC[C@H]1C(=O)CN(C)C(=O)Oc1ccc([N+](=O)[O-])cc1 [Compound 68, p-Nitropheny N-(methyl succinyl-L-alanyl-L-alanyl-L-prolymethyl)-N-methyl-carbamate]
Comments (inhibition of PP elastase) [1, 5]: +

CCCN(CC(=O)[C@@H]1CCCN1C(=O)[C@H](C)NC(=O)[C@H](C)NC(=O)CCC(=O)OC)C(=O)Oc1ccc([N+](=O)[O-])cc1 [Compound 29, P-Nitrophenyl N-(methyl succinyl-L-alanyl-L-alanyl-L-prolylmethyl) N-propylcarbamate]
Ki ([1]; Table 2, changes in P1, PP elastase, read-out: Ki): 30.5 µM | Comments (inhibition of PP elastase) [1, 5]: +

COC(=O)CCC(=O)N[C@@H](C)C(=O)N[C@@H](C)C(=O)N1CCC[C@H]1C(=O)CN(C(=O)OCC(F)(F)C(F)(F)C(F)(F)F)C(C)C [Compound 61, Heptafluorobutyl N-(methyl succinyl-L-alanyl-L-alanyl-L-prolylmethyl)-N-isopropylcarbamate]
Comments (inhibition of PP elastase) [1, 3]: +

COC(=O)CCC(=O)N[C@@H](C)C(=O)N[C@@H](C)C(=O)N1CCC[C@H]1C(=O)CN(C(=O)Sc1nnnn1C)C(C)C [Compound 18]
Ki [1, 2]: 14.8 µM | Comments (inhibition of PP elastase) [1, 3]: +

COC(=O)CCC(=O)N[C@@H](C)C(=O)N[C@@H](C)C(=O)N1CCC[C@H]1C(=O)CN(C(=O)Oc1ccc([N+](=O)[O-])cc1)C(C)C [Compound 10, p-Nitrophenyl N-(Methy Succinyl-L-Alanyl-L-Alanyl-L-Prolymethyl)-N-Isopropyl Carbamate]
Ki [1, 2]: 42.5 µM | Comments (inhibition of PP elastase) [1, 3]: + | Comments (inhibition of PP elastase) [1, 5]: +

CC(C)N(CC(=O)[C@@H]1CCCN1C(=O)OC(C)(C)C)C(=O)Oc1ccc([N+](=O)[O-])cc1 [Compound 6, p-Nitrophenyl N-(N'-t-Boc-L-prolyl)Methyl-N-Isopropylcarbamate]
Hydrolysis by PP elastase ([1]; detected by the release of p-nitrophenol): hydrolysis of 6 by PP elastase
